Assay [1] has as its system XBP1 mRNA splicing. Description: XBP1 splicing in ER-stressed INS-1 cells. It counts as cell-based, rat. Conditions: DTT, 20 μM compound. As to the method: RNA Isolation, Quantitative Real-Time PCR, and Primers
(§1) INS-1 or isogenic IRE1α-overexpressing INS-1 cells were plated onto Poly-D-Lysine coated tissue culture plate and grown for 48 hrs. Inhibitors or DMSO were added to the media and incubated for 1 hour at 37° C. with 5% CO2 prior to addition of ER stress agents or Dox as indicated. RNA was isolated from whole cells using either QIAGEN RNeasy Mini kits or Trizol (Invitrogen) and reverse transcribed as above to obtain total cDNA. Then, XBP-1 primers were used to amplify an XBP-1 amplicon spanning the 26 nt intron from the cDNA samples in a regular 3-step PCR. Thermal cycles were: 5 min at 95° C., 30 cycles of 30 s at 95° C., 30 s at 60° C., and 1 min at 72° C., followed by 72° C. for 15 min, and hold at 4° C. Primers used for XBP-1 mRNA splicing were as follows: sense primer XBP1.3 S (5′ […]-3′ (SEQ ID NO:2)) and antisense primer XBP1.2AS (5′-[…]-3′ (SEQ ID NO:3)). PCR fragments were then digested by PstI, resolved on 3% agarose gels, stained with EtBr and quantified by densitometry using ImageJ (NIH). For standard mRNA detection, generally […] total RNA was reverse transcribed using the QuantiTect Reverse Transcription Kit (QIAGEN). For qPCR, we used SYBR green (QIAGEN) and StepOnePlus Real-Time PCR System (Applied Biosystems). Thermal cycles were: 5 min at 95° C., 40 cycles of 15 sec at 95° C., 30 sec at 60° C. […]

In assay [2] the test system is XBP1 mRNA splicing. Description: XBP1 splicing in human islets subjected to ER stress. It counts as cell-based. As to conditions: DTT, 20 μM compound. As to the method:
as §1, with “(QIAGEN).” for “(QIAGEN). For qPCR, we used SYBR green (QIAGEN) and StepOnePlus Real-Time PCR System (Applied Biosystems). Thermal cycles were: 5 min at 95° C., 40 cycles of 15 sec at 95° C., 30 sec at 60° C.”
Non-diabetic human islets were obtained and cultured in supplemented Prodo Islet Medium (PIM(S) from Prodo Labs). […] Collected media were analyzed by anti-insulin ELISA (EMD Millipore) and insulin levels were normalized to total protein amount.

`O=S(=O)(CC(F)(F)F)Nc1ccc(Oc2ncccc2-c2ccnc(N[C@H]3CCCNC3)n2)c2ccccc12` (stereo in doubt) [PAIR1, 2,2,2-trifluoro-N-(4-(3-(2-(piperidin-3-ylamino)pyrimidin-4-yl)pyridin-2-yloxy)naphthalen-1-yl)ethanesulfonamide]: the “XBP1 mRNA splicing” value with XBP1 mRNA splicing [1] and in the assay with XBP1 mRNA splicing [2] was “only weakly inhibited” throughout.

Values taken from patent publication US11884649B2, “IRE1α inhibitors and uses thereof” (The Regents of the University of California, priority 2020, dated 2024).
